According to patent US9795695B2, “Process for the preparation of gadobenate dimeglumine complex in a solid form” (BRACCO IMAGING S.p.A., priority 2009, dated 2017):

Assay: dissolution of the solid form in water
Format: physicochemical
Settings: for time for dissolution in water: room temperature

Row | water required to dissolve 1 g of product (per 1 g of product, room temperature (20° C. to 30° C.)) | time for dissolution in water | time for dissolution in water (listed as powdered gadobenate) | Structure (SMILES) | ease of dissolution (in words) (aqueous solution)
1 | – | – | – | CNC[C@H](O)[C@@H](O)[C@H](O)[C@H](O)CO.CNC[C@H](O)[C@@H](O)[C@H](O)[C@H](O)CO.O=C([O-])CN(CCN(CC(=O)[O-])CC(=O)O)CCN(CC(=O)O)C(COCc1ccccc1)C(=O)[O-].[Gd+3] (stereo not shown) [Comparative Example 2a, gadobenate dimeglumine] | difficult to collect and, in case, to re-dissolve
2 | less than 1 mL | few seconds | less than one minute | CNC[C@H](O)[C@@H](O)[C@H](O)[C@H](O)CO.CNC[C@H](O)[C@@H](O)[C@H](O)[C@H](O)CO.O=C([O-])CN(CCN(CC(=O)[O-])CC(=O)O)CCN(CC(=O)O)C(COCc1ccccc1)C(=O)[O-].[Gd+3] (stereo not shown) [gadobenate dimeglumine] | –
